The values below come from ChEMBL document CHEMBL4390649, “Fine-tuning the neuroprotective and blood-brain barrier permeability profile of multi-target agents designed to prevent progressive mitochondrial dysfunction” (Eur J Med Chem, 2019).

Calls of active or inactive are those of the source. No cut-off for these calls is given here.

The IC50 is the concentration that inhibits the measured activity by half.

In one data set the test system is SH-SY5Y. Put plainly: Neuroprotective activity against H2O2-induced oxidative damage in human SH-SY5Y cells assessed as reduction in cell damage at 50 uM pretreated for 24 hrs followed by H2O2 challenge measured after 30 mins by MTT assay relative to control. Type of data set: functional. Further details: scale not given: the % may be the effect or the level left.
Settings: not given
(In general: Tetrazolium dyes change colour on reduction, which living cells bring about.)
With `CS(=O)(=O)[O-].O=C(Cc1cc(O)c(O)c(O)c1)NCCCCCCCCCC[P+](c1ccccc1)(c1ccccc1)c1ccccc1`, the Activity is reported as 70.8 - 83.3%.

System in the next data set: not listed separately
Put plainly: Antioxidant activity assessed as ABTS radical scavenging activity measured after 15 mins by UV-Visible spectrophotometric based assay. It is filed as functional.
Settings: not given
With `CS(=O)(=O)[O-].O=C(CCc1ccc(O)c(O)c1)NCCCCCCCCCC[P+](c1ccccc1)(c1ccccc1)c1ccccc1`, the half-inhibitory concentration (IC50) came out at 30.1 µM.
In the case of `CS(=O)(=O)[O-].O=C(Cc1cc(O)c(O)c(O)c1)NCCCCCCCCCC[P+](c1ccccc1)(c1ccccc1)c1ccccc1`, the IC50 was found to be 7.6 µM.

System in a further data set: not listed separately
Put plainly: Cytotoxicity against human CMEC/D3 cells assessed as reduction in cell viability at 50 to 100 uM incubated for 4 hrs by MTT assay relative to control. Type of data set: cell-based. The note with it: hcmec/d3, 4 h.
Consider `CS(=O)(=O)[O-].O=C(Cc1cc(O)c(O)c(O)c1)NCCCCCCCCCC[P+](c1ccccc1)(c1ccccc1)c1ccccc1`, for which the Activity result is reported as “Non-Toxic”.

Another data set relates to SH-SY5Y. Put plainly: Cytotoxicity against human SH-SY5Y cells assessed as reduction in cell viability incubated for 24 hrs by MTT assay relative to control.
Settings: not given
Type of data set: cell-based.
For `CS(=O)(=O)[O-].O=C(CCc1ccc(O)c(O)c1)NCCCCCCCCCC[P+](c1ccccc1)(c1ccccc1)c1ccccc1`, the Activity result is on record as “Dose-dependent effect”.

System in the next data set: not listed separately
Put plainly: Cytotoxicity against human SH-SY5Y cells assessed as cell metabolic activity at 50 uM incubated for 24 hrs by MTT assay relative to control. Type of data set: ADME, cell-based. Particulars: read-out: Activity.
Regarding `CS(=O)(=O)[O-].O=C(CCc1ccc(O)c(O)c1)NCCCCCCCCCC[P+](c1ccccc1)(c1ccccc1)c1ccccc1`, the viability at 24 h, 50 µM is 72.5%.
The same measure, in the same setting: in the case of `CS(=O)(=O)[O-].O=C(Cc1cc(O)c(O)c(O)c1)NCCCCCCCCCC[P+](c1ccccc1)(c1ccccc1)c1ccccc1` it was 95.3%.

A further data set concerns SH-SY5Y. Put plainly: Neuroprotective activity against TBHP-induced oxidative damage in human SH-SY5Y cells assessed as increase in cell viability at 10 uM pretreated for 24 hrs followed by TBHP stimulation measured after 4 hrs by MTT assay relative to control. It is filed as functional, cell-based.
Settings: not given
In the case of `CS(=O)(=O)[O-].O=C(CCc1ccc(O)c(O)c1)NCCCCCCCCCC[P+](c1ccccc1)(c1ccccc1)c1ccccc1`, the outcome was inactive.
On the same count and under the same terms, in the case of `CS(=O)(=O)[O-].O=C(Cc1cc(O)c(O)c(O)c1)NCCCCCCCCCC[P+](c1ccccc1)(c1ccccc1)c1ccccc1` it was “inactive”.

System in another data set: not listed separately
Put plainly: Antioxidant activity assessed as DPPH radical scavenging activity measured after 45 mins by UV-Visible spectrophotometric based assay. Type of data set: functional.
Settings: not given
In general terms: Loss of DPPH colour is used to gauge radical scavenging.
As for `CS(=O)(=O)[O-].O=C(CCc1ccc(O)c(O)c1)NCCCCCCCCCC[P+](c1ccccc1)(c1ccccc1)c1ccccc1`, the IC50 amounted to 59.1 µM.
Still for that read-out and setting: in the case of `CS(=O)(=O)[O-].O=C(Cc1cc(O)c(O)c(O)c1)NCCCCCCCCCC[P+](c1ccccc1)(c1ccccc1)c1ccccc1` it was 20.7 µM.

In a further data set the test system is HepG2. Put plainly: Cytotoxicity against human HepG2 cells assessed as reduction in cell viability incubated for 48 hrs by resazurin assay relative to control. It is filed as cell-based. Particulars: hepg2, 48 h. On the technique in general: The colour change of resazurin is a common sign of viable cells or microbes.
As for `CS(=O)(=O)[O-].O=C(CCc1ccc(O)c(O)c1)NCCCCCCCCCC[P+](c1ccccc1)(c1ccccc1)c1ccccc1`, the Activity result is listed as “Dose-dependent effect”.

The test system of a further data set is SH-SY5Y. Put plainly: Cytotoxicity against human SH-SY5Y cells assessed as reduction in cell viability at 10 uM incubated for 24 hrs by MTT assay relative to control. It is filed as cell-based.
Settings: not given
For `CS(=O)(=O)[O-].O=C(CCc1ccc(O)c(O)c1)NCCCCCCCCCC[P+](c1ccccc1)(c1ccccc1)c1ccccc1`, the Activity is listed as less than 45%.

System in another data set: not listed separately
Put plainly: Cytotoxicity against human HepG2 cells assessed as cell metabolic activity at 50 uM incubated for 48 hrs by resazurin assay relative to control. Type of data set: ADME, cell-based. The note with it: read-out: Activity.
Take `CS(=O)(=O)[O-].O=C(CCc1ccc(O)c(O)c1)NCCCCCCCCCC[P+](c1ccccc1)(c1ccccc1)c1ccccc1`: the viability at 48 h, 50 µM was found to be 8.22%.
Still for that read-out and setting: in the case of `CS(=O)(=O)[O-].O=C(Cc1cc(O)c(O)c(O)c1)NCCCCCCCCCC[P+](c1ccccc1)(c1ccccc1)c1ccccc1` it was 93.6%.

System in another data set: not listed separately
Put plainly: Electrochemical behavior of the compound assessed as redox potential corrected toward saturated Ag/AgCl reference electrode by differential pulse voltammetry.
Settings: not given
Consider `CS(=O)(=O)[O-].O=C(CCc1ccc(O)c(O)c1)NCCCCCCCCCC[P+](c1ccccc1)(c1ccccc1)c1ccccc1`, for which the Activity is 122 mV.
On the same count and under the same terms, in the case of `CS(=O)(=O)[O-].O=C(Cc1cc(O)c(O)c(O)c1)NCCCCCCCCCC[P+](c1ccccc1)(c1ccccc1)c1ccccc1` it was 594 mV.

The subject of the next data set is SH-SY5Y. Put plainly: Neuroprotective activity against 6-OHDA-induced toxicity in human SH-SY5Y cells assessed as reduction in cell damage at 10 to 50 uM pretreated for 24 hrs followed by 6-OHDA challenge and measured after 24 hrs by MTT assay relative to control. It is filed as functional. Further details: scale not given: the % may be the effect or the level left.
Settings: not given
On to `CS(=O)(=O)[O-].O=C(Cc1cc(O)c(O)c(O)c1)NCCCCCCCCCC[P+](c1ccccc1)(c1ccccc1)c1ccccc1`, for which the Activity is reported as 66.5 - 70.2%.

System in the next data set: not listed separately
Put plainly: Cytotoxicity against human HepG2 cells assessed as cell metabolic activity at 10 uM incubated for 48 hrs by resazurin assay relative to control. It is filed as ADME, cell-based. The note with it: read-out: Activity.
With `CS(=O)(=O)[O-].O=C(CCc1ccc(O)c(O)c1)NCCCCCCCCCC[P+](c1ccccc1)(c1ccccc1)c1ccccc1`, the viability at 48 h, 10 µM was determined as 41.8%.
For `CS(=O)(=O)[O-].O=C(Cc1cc(O)c(O)c(O)c1)NCCCCCCCCCC[P+](c1ccccc1)(c1ccccc1)c1ccccc1`, the viability at 48 h, 10 µM worked out at 102%.

In the next data set the test system is SH-SY5Y. Put plainly: Neuroprotective activity against TBHP-induced oxidative damage in human SH-SY5Y cells assessed as increase in cell viability at 50 uM pretreated for 24 hrs followed by TBHP stimulation measured after 4 hrs by MTT assay relative to control. It is filed as functional.
Settings: not given
Consider `CS(=O)(=O)[O-].O=C(CCc1ccc(O)c(O)c1)NCCCCCCCCCC[P+](c1ccccc1)(c1ccccc1)c1ccccc1`, for which the outcome was inactive.
Same read-out and setting: in the case of `CS(=O)(=O)[O-].O=C(Cc1cc(O)c(O)c(O)c1)NCCCCCCCCCC[P+](c1ccccc1)(c1ccccc1)c1ccccc1` it was “inactive”.

Another data set relates to SH-SY5Y. Put plainly: Neuroprotective activity against H2O2-induced oxidative damage in human SH-SY5Y cells assessed as reduction in cell damage at 10 uM pretreated for 24 hrs followed by H2O2 challenge measured after 30 mins by MTT assay relative to control. Type of data set: functional. Further details: scale not given: the % may be the effect or the level left.
Settings: not given
Consider `CS(=O)(=O)[O-].O=C(Cc1cc(O)c(O)c(O)c1)NCCCCCCCCCC[P+](c1ccccc1)(c1ccccc1)c1ccccc1`, for which the Activity was 70.8 - 83.3%.

System in another data set: not listed separately
Put plainly: Apparent permeability across apical to basolateral side in human CMEC/D3 cells at 100 uM incubated by UV-VIS spectroscopic method. Type of data set: ADME, cell-based. Particulars: hcmec/d3, 100 µM, TDE = time-dependent effect.
With `CS(=O)(=O)[O-].O=C(Cc1cc(O)c(O)c(O)c1)NCCCCCCCCCC[P+](c1ccccc1)(c1ccccc1)c1ccccc1`, the permeability entry is listed as “Tde”.

System in a further data set: not listed separately
Put plainly: Cytotoxicity against human SH-SY5Y cells assessed as cell metabolic activity at 10 uM incubated for 24 hrs by MTT assay relative to control. Type of data set: ADME, cell-based. Particulars: read-out: Activity.
In the case of `CS(=O)(=O)[O-].O=C(CCc1ccc(O)c(O)c1)NCCCCCCCCCC[P+](c1ccccc1)(c1ccccc1)c1ccccc1`, the viability at 24 h, 10 µM is 96%.
Same read-out and setting: in the case of `CS(=O)(=O)[O-].O=C(Cc1cc(O)c(O)c(O)c1)NCCCCCCCCCC[P+](c1ccccc1)(c1ccccc1)c1ccccc1` it was 95.2%.

System in the next data set: not listed separately
Put plainly: Metal chelating activity assessed as compound-Fe2+ complex formation at 100 uM incubated for 10 mins by ferrozine spectrophotometric assay.
Settings: not given
With `CS(=O)(=O)[O-].O=C(CCc1ccc(O)c(O)c1)NCCCCCCCCCC[P+](c1ccccc1)(c1ccccc1)c1ccccc1`, the Activity was more than 80%.
Same read-out and setting: in the case of `CS(=O)(=O)[O-].O=C(Cc1cc(O)c(O)c(O)c1)NCCCCCCCCCC[P+](c1ccccc1)(c1ccccc1)c1ccccc1` it was more than 80%.

System in the next data set: not listed separately
Put plainly: Apparent permeability across apical to basolateral side in human CMEC/D3 cells at 100 uM incubated up to 180 mins by UV-VIS spectroscopic method. It is filed as ADME, cell-based. The note with it: hcmec/d3, 3 h.
Regarding `CS(=O)(=O)[O-].O=C(Cc1cc(O)c(O)c(O)c1)NCCCCCCCCCC[P+](c1ccccc1)(c1ccccc1)c1ccccc1`, the permeability is on record as 27.7%.

The test system of a further data set is SH-SY5Y. Put plainly: Induction of ROS generation in human SH-SY5Y cells at 50 uM incubated for 24 hrs by DCFH-DA probe based fluorescence assay relative to control. Type of data set: functional.
Settings: not given
`CS(=O)(=O)[O-].O=C(CCc1ccc(O)c(O)c1)NCCCCCCCCCC[P+](c1ccccc1)(c1ccccc1)c1ccccc1` gave an Activity of 96.2%.
Turning to `CS(=O)(=O)[O-].O=C(Cc1cc(O)c(O)c(O)c1)NCCCCCCCCCC[P+](c1ccccc1)(c1ccccc1)c1ccccc1`, the result was Active.

System in the next data set: not listed separately
Put plainly: Electrochemical behavior of the compound assessed as redox potential corrected toward saturated Ag/AgCl reference electrode by cyclic voltammetry.
Settings: not given
In the case of `CS(=O)(=O)[O-].O=C(CCc1ccc(O)c(O)c1)NCCCCCCCCCC[P+](c1ccccc1)(c1ccccc1)c1ccccc1`, the Activity was found to be 122 mV.
On the same count and under the same terms, the figure for `CS(=O)(=O)[O-].O=C(Cc1cc(O)c(O)c(O)c1)NCCCCCCCCCC[P+](c1ccccc1)(c1ccccc1)c1ccccc1` is 11 mV.
